The source of these data is article PMC6889545, “ALW peptide ameliorates lupus nephritis in MRL/lpr mice” (Arthritis Research & Therapy, 2019).

Data set [1] in a line: Tissue biodistribution of ALW peptide (kidney, liver, lung). It counts as in vivo, CD1 mice. As for the experimental part: (§1) Two 12-amino acid peptides (ALWPPNLHAWVP [ALW]; PLPHNPWVLAAW [PLP]) were synthetized by Sangon Biotech Company (China). The PLP peptide was a scrambled peptide with amino acid residues identical to ALW peptide. The first and last amino acids of both peptides are D-form, and the others are L-form. To study the pharmacokinetic characteristics of both peptides in vivo, 8-week-old male CD1 mice were administrated with ALW or PLP peptide at a single dose of 12.5 mg/kg. Plasma samples were collected at each time point before (0) and 0.083, 0.25, 0.5, 1, 2, 4, 8, and 24 h after administration. To assess the biodistribution of ALW peptide in vivo, tissues including the kidney, liver, and lung were collected at 0.083, 0.25, 0.5, 1, 2, and 4 h after administration. Then, the concentration of two peptides in mouse plasma and tissues were quantitatively determined by liquid chromatography-tandem mass spectrometry (LC-MS/MS). The pharmacokinetic parameters were calculated by WinNonlin 6.1 software according to the […] model.

Data set [2] deals with BALB/c mice. Briefly: Induction of anti-dsDNA antibodies after intravenous peptide injection. As to conditions: same dosages, frequencies and treatment period as MRL/lpr study, data not shown. The data set is classed as in vivo, mouse. From the text:
The ALW and PLP peptides were also intravenously injected into BALB/c mice with the same dosages, frequencies, and treatment period. […] All animal protocols were approved by the Hospital Research Ethics Committee.

Data set [3] in a line: Solubility of the peptides. It counts as physicochemical. As to conditions: for Maximum solubility: injection solution in saline. As for the experimental part:
For the in vivo study, 40 MRL/lpr mice were randomly divided into four groups. Mice in the ALW group (n = 12) received an intravenous injection of 100 μg/mL ALW peptide in saline every other day, mice in the PLP group (n = 12) were injected intravenously with 100 μg/mL PLP peptide in saline, mice in the NaCl group (n = 8) were given normal saline intravenously, and mice in the blank group (n = 8) were not treated. The dosages were decided in a preliminary experiment, showing that the concentration of anti-dsDNA IgG was about 34.74 ± 3.47 ng/mL in MRL/lpr mice aged 24 weeks. By calculating the molecular weights of anti-dsDNA IgG (150 kDa) to ALW peptide (1.4 kDa), the ALW concentration of 100 μg/mL is sufficient to maintain a high molar ratio (much higher than 5 times of anti-dsDNA IgG). In fact, the maximum solubility of PLP peptide is also 100 μg/mL, less than ALW peptide. Urine was collected every 2 weeks. Six weeks later, the mice were euthanized. Blood, urine, and kidneys were harvested for further analysis.

The subject of data set [4] is anti-dsDNA IgGs. The settings on record: cited from earlier work. An excerpt: The ALW peptide is a small molecule with a molecular weight of 1.4 kDa. […] Because there is no methionine, cysteine, and glutamine, which are related with the oxidation, cyclization, and degradation of peptides, ALW may have greater physiological stability. In addition, the ALW peptide has a relatively neutral net charge (pI = 7.38), which probably decrease unnecessary, nonspecific protein-protein interactions. […] Here, after chemical modification ...

A short description of data set [5]: Plasma pharmacokinetics of the peptides after a single dose. It counts as in vivo. The settings on record: 8-week-old male CD1 mice, single intravenous dose 12.5 mg/kg, plasma 0-24 h, LC-MS/MS, WinNonlin 6.1; for MRT: male, CD1, mouse, plasma, iv, 12.5 mg/kg; for clearance: read-out: Cl (plasma clearance); for Vd: read-out: Vss. As for the experimental part:
as §1

Data set [6] deals with murine model. As to conditions: cited from earlier work. An excerpt: IgG2a and IgG3 had higher affinity for autoantigens in the kidney, followed by IgG1, IgG2b, and IgM [12]. DWEYS peptide (DWEYSVWLSN) is a DNA-mimic peptide screened by a mouse pathogenic monoclonal antibody (IgG2b, R4A clone). […] FISLE-412, a peptide compound mimicking the molecular structure of DWEYS ... || Given the key role of anti-dsDNA antibodies in the pathogenesis of LN, development of specific inhibitors of anti-dsDNA antibodies may be a good method to manage LN. Several polypeptides, specifically reacting with mouse anti-dsDNA IgG2b, were identified by the peptide display phage library. […] FISLE-412, a small peptidomimetic modified from DWEYS peptide, blocked the binding of DNA to monoclonal mouse and human anti-dsDNA antibodies with improved affinity and selectivity. In ...

Data set [7] relates to NZB×NZW F1 lupus mice. As to conditions: intravenous once a month; cited from earlier work. From the text:
Given the key role of anti-dsDNA antibodies in the pathogenesis of LN, development of specific inhibitors of anti-dsDNA antibodies may be a good method to manage LN. Several polypeptides, specifically reacting with mouse anti-dsDNA IgG2b, were identified by the peptide display phage library. […] FISLE-412, a small peptidomimetic modified from DWEYS peptide, blocked the binding of DNA to monoclonal mouse and human anti-dsDNA antibodies with improved affinity and selectivity. In ...

Setting [8] is: 8-week-old male CD1 mice, single intravenous dose 12.5 mg/kg, kidney tissue 0.083-4 h, LC-MS/MS, WinNonlin 6.1.
Where [9] appears, read: 8-week-old male CD1 mice, single intravenous dose 12.5 mg/kg, liver tissue 0.083-4 h, LC-MS/MS, WinNonlin 6.1.
[10] abbreviates: 8-week-old male CD1 mice, single intravenous dose 12.5 mg/kg, lung tissue 0.083-4 h, LC-MS/MS, WinNonlin 6.1.
[11] abbreviates: read-out: MRT0-inf (mean residence time) in plasma.

Like-named read-outs stand apart in the source and are kept apart here. Non-standard residues stand in square brackets, D forms with d. Residues, ends and D or L forms follow the SMILES beside them. Where only a bound is given, the exact number is not on record here.

In the case of `CC(C)C[C@H](NC(=O)[C@H](CC(N)=O)NC(=O)[C@@H]1CCCN1C(=O)[C@@H]1CCCN1C(=O)[C@H](Cc1c[nH]c2ccccc12)NC(=O)[C@H](CC(C)C)NC(=O)[C@@H](C)N)C(=O)N[C@@H](Cc1c[nH]cn1)C(=O)N[C@@H](C)C(=O)N[C@@H](Cc1c[nH]c2ccccc12)C(=O)N[C@H](C(=O)N1CCC[C@@H]1C(=O)O)C(C)C` [ALW peptide] (H-[dA]LWPPNLHAWV[dP]-OH), in data set [1] (setting [8]), the AUC0-inf in kidney is 28.80 ng·h/g, the AUC0-last in kidney turned out to be 25.51 ng·h/g, the Cmax in kidney worked out at 60.00 ng/g and the MRT0-inf in kidney turned out to be 27.6 min. In data set [1] (setting [8]), the MRT0-last in kidney was found to be 19.8 min, the T1/2 in kidney was 18.6 min and the Tmax in kidney was 4.8 min. The “Kp, kidney” value in data set [1] (8-week-old male CD1 mice, single intravenous dose 12.5 mg/kg, kidney versus plasma) is 0.11. Moreover, in data set [1] (setting [9]), the AUC0-last in liver stood at 2.29 ng·h/g, the Cmax in liver was 11.80 ng/g, the MRT0-last in liver worked out at 8.4 min and the Tmax in liver came out at 4.8 min. Also, the “Kp, liver” value in data set [1] (8-week-old male CD1 mice, single intravenous dose 12.5 mg/kg, liver versus plasma) is listed as 0.01. For the same molecule, in data set [1] (setting [10]), the AUC0-last in lung amounted to 5.10 ng·h/g, the Cmax in lung was found to be 7.33 ng/g, the MRT0-last in lung is 29.4 min and the Tmax in lung was determined as 15 min. The “Kp, lung” value in data set [1] (8-week-old male CD1 mice, single intravenous dose 12.5 mg/kg, lung versus plasma) amounted to 0.02. The “Renal tissue exposure as share of plasma exposure” value in data set [1] (CD1 mice, intravenous 12.5 mg/kg, kidney) is recorded as “approximately 11.2%”. Also, the “Liver tissue exposure as share of plasma exposure” value in data set [1] (CD1 mice, intravenous 12.5 mg/kg, liver) worked out at 0.892%. The “Lung tissue exposure as share of plasma exposure” value in data set [1] (CD1 mice, intravenous 12.5 mg/kg, lung) is given as 1.99%. Moreover, the “Anti-dsDNA antibodies in sera after treatment (immunogenicity)” value (shortened to “Anti-dsDNA antibodies in sera”) in data set [2] is given as “induced no anti-dsDNA antibodies”. The “Anti-dsDNA antibodies in sera” value in data set [2] (listed as ALW) is given as “no detectable anti-dsDNA antibodies”. In addition, in data set [3], the Maximum solubility was above 100 µg/mL. Besides, in data set [3] (water or PBS), the “Solubility in water or PBS” value is given as “easy to dissolve in water or PBS”. Also, in data set [4] (after substituting two terminal residues A and P with D-form ones), the “Resistance of the peptide to catalysis” value is “enhanced”. Besides, in data set [4] (unmodified peptide), the “Catalysis of the peptide by anti-dsDNA IgGs” value is given as “catalyzed weakly”. For the same molecule, in data set [5], the AUC0-inf in plasma worked out at 264 ng·h/mL, the AUC0-last in plasma is 258 ng·h/mL, the “MRT0-inf (mean residence time) in plasma” value worked out at 7.8 min and the “T1/2 (elimination half-life) in plasma” value is 18.9 min. Besides, the MRT in data set [5] (setting [11]) amounted to 7.8 min. The MRT in data set [5] (read-out: MRT0-last in plasma) turned out to be 6 min. In data set [5] (mouse), the C0 is 3640 ng/mL, the clearance was determined as 789 mL/min/kg and the Vd worked out at 6.16 L/kg. Also, the half-life in data set [5] (mouse, read-out: T1/2 (elimination half-life) in plasma (converted)) was 19.2 min.
`CC(C)C[C@H](NC(=O)[C@@H](NC(=O)[C@H](Cc1c[nH]c2ccccc12)NC(=O)[C@@H]1CCCN1C(=O)[C@H](CC(N)=O)NC(=O)[C@H](Cc1c[nH]cn1)NC(=O)[C@@H]1CCCN1C(=O)[C@H](CC(C)C)NC(=O)[C@H]1CCCN1)C(C)C)C(=O)N[C@@H](C)C(=O)N[C@@H](C)C(=O)N[C@H](Cc1c[nH]c2ccccc12)C(=O)O` [PLP peptide, reference compound] (H-[dP]LPHNPWVLAA[dW]-OH): in data set [2], the “Anti-dsDNA antibodies in sera” value is recorded as “no detectable anti-dsDNA antibodies”. Also, the Maximum solubility in data set [3] came to 100 µg/mL. Further, the “MRT0-inf (mean residence time) in plasma” value in data set [5] came out at 13.6 min. Further, in data set [5] (setting [11]), the MRT came to 13.8 min. Further, in data set [5] (read-out: MRT0-last in plasma), the MRT stood at 11.4 min. In data set [5] (mouse), the C0 amounted to 85400 ng/mL, the clearance was 14.7 mL/min/kg and the Vd turned out to be 0.2 L/kg. For the same molecule, the AUC(0-inf) in data set [5] (mouse, read-out: AUC0-inf in plasma) was 14100 ng·h/mL. Also, in data set [5] (mouse, read-out: AUC0-last in plasma), the AUC(0-t) is 14100 ng·h/mL.
“DWEYSVWLSN [DWEYS peptide, DNA-mimic peptide … screened by a mouse pathogenic monoclonal antibody (IgG2b, R4A clone)]”: the “Renal deposition of IgG2b” value in data set [6] (SCID mice) is reported as “protected SCID mice from the renal deposition of IgG2b”. Further, the “Renal IgG deposition” value in data set [6] (murine model, intraperitoneal administration) is reported as “evidently depressed”.
“FIEWNKLRFRQGLEW [pCons, 15-mer peptide based on MHC class I and II T cell determinants in the VH region of murine anti-dsDNA IgG2a or IgG2b]”: in data set [7], the “Emergence of multiple autoantibodies” value is listed as “delayed the emergence of multiple autoantibodies”.

One may read the clearance as the volume of plasma or blood freed of the substance per unit of time.
